{"source": "patent US5208145A", "about": "“Assay for the presence, in cultured cells, of functional ligand-gated channels, and substances which enhance intracellular lithium accumulation by cultured cells via such channels” (The Salk Institute for Biological Studies, priority 1991, dated 1993)", "test_system": "PC12 cells", "details": "sodium formulated buffer plus 10 μM nicotine, 3H-thymidine incorporation, FIG. 1", "experimental": "To subculture, these cells were dislodged from the culture dish by pipetting medium across the culture surface, disassociated by vigorous repeat pipetting, and then distributed to new culture dishes containing fresh media. All cells were maintained at 37° C. in a humidified atmosphere supplemented to 5 percent with CO2.\nPC12 cells were distributed to 96 well Costar culture dishes (10^4 cells/well) and the cells were allowed to recover for 24 to 36 hours prior to use. Cells were never allowed to reach confluency. To conduct a lithium-flux experiment, the culture medium was removed and gently replaced with flux-buffer composed of 1.8 mM CaCl2, 25 mM glucose, 10 mM HEPES (pH 7.4), and 115 mM in either sodium chloride or lithium chloride. Each buffer was filter sterilized and supplemented with agonist, antagonist, or both, as described for the experiment being conducted. […] For PC12 cells, culture was then continued as usual for 6 hours before quantitating ^3 H-thymidine incorporation. […]\nTo determine the incorporation of ^3 H-thymidine into fluxed cells, dishes were frozen at -70°, thawed, and the DNA from each well was collected on glass filters using a Cambridge PhD cell harvester. […] Glass filters were dried, resuspended in Ecolume (ICN) scintillation cocktail, and counted in an LKB Wallace 2010 scintillation counter at 34 percent efficiency."}
{"smiles": "CN1CCCC1c1cccnc1", "note": "(stereo not shown) [nicotine]", "values": [{"measurement": "effect of the presence of nicotine on cell cycle time of PC12 cells", "result": "does not alter the cell cycle time of PC12 cells"}]}
